Patent US4939125A, “Acyl derivatives of urdamycin A, their preparation and their use” (Hoechst Aktiengesellschaft, priority 1986, dated 1990)
Converted amounts (≈) assume the structure as drawn.

How the values were obtained:
Format in all cases: cell-based
L 1210 leukemia cells [1] = experiment: In vitro cytostatic activity, colony formation (Hamburger and Salmon), continuous incubation; conditions: L 1210, continuous incubation, 5 to 7 days at 37° C., colonies from 60 μm, carried out 4 times, deviation less than 15%; for IC50: Mus musculus, L1210, read-out: IC50, Strain test, continuous
Description: (§1) The experiment was carried out in accordance with the process of Hamburger and Salmon [New Engl. J. Med. 298, 1321-1327 (1978)]. The medium was replaced by McCoy 5A, and the number of cells was reduced to 5×10^2 cells/plate.
A continuous incubation of cells with various concentrations of the test substance from Examples 1 to 5 and 5',3B,4B,4C,8-penta-O-acetylurdamycin A was carried out. The compounds to be tested were applied to the agar plates before plating-out the cell cultures. The cell cultures then grew for 5 to 7 days in the incubation in an atmosphere of 5% of CO2, 20% of O2 and 95% relative atmospheric humidity at 37° C. After this time, the number of cell colonies having a diameter from 60 μm was determined (in %) relative to the number of cell colonies which had grown in comparison without test substance.
(§2) The IC50 value for continuous and 1-hour incubation was determined from the dose/action curve.
(§3) In all cases, the experiments were carried out 4 times. The deviation in the results was less than 15%.

L 1210 leukemia cells [2] = experiment: In vitro cytostatic activity, colony formation (Hamburger and Salmon), 1-hour incubation; conditions: L 1210, 1 hour incubation at 37° C., then washed and plated, carried out 4 times, deviation less than 15%; for IC50: Mus musculus, L1210, read-out: IC50, Strain test, 1 hour
Description: as §1
In the test, the cells were incubated at 37° C. for 1 hour at various concentrations of the test substance. The cells were then washed twice with McCoy 5A solution and subsequently applied to agar plates in accordance with the method of Hamburger and Salmon. The cells were subsequently cultivated as described above, and the number of cell colonies was determined (evaluation as in a).
as §2, §3

L 1210 tumor cells = experiment: Proliferation experiment (MTT); conditions: carried out 4 times, deviation less than 15%; for IC50: Mus musculus, L1210, L 1210, 72 hours at 37° C., read-out: IC50, Proliferation test
Description: L 1210 tumor cells at the exponential growth phase (5×10^3 cells/ml, Roswell Park Memorial Institute (RPMI) medium) were incubated in a microtiter plate with […] recesses for a period of 72 hours at 37° C., 5% of CO2 and 95% relative atmospheric humidity and various concentrations of the test substances from Examples 1 to 5 and also 5',3B,4B,4C,8-penta-O-acetylurdamycin A. After 65 hours, 50 μl of 3-(4,5-dimethylthiazol-2-yl)-2,5-diphenyltetrazolium bromide (MTT) (2.5 mg/ml of MIT in phosphate buffer saline (PBS)) were added. The MTT was reduced by living cells into the red, water-insoluble dyestuff formazan. After a further 7 hours, the supernatant medium was carefully removed. Formazan was dissolved by adding 100 μl of dimethyl sulfoxide per recess and subsequently shaking gently. The extinction of each recess was determined using a multisan 340 CC photometer (Messrs. Flow) at 491 nm. The results were determined from the extinction ratio of cells with test substance to cells without test substance.
as §3

Row | Molecule | IC50 (L 1210 leukemia cells [1]) [µg/mL] | IC50 (L 1210 leukemia cells [2]) [µg/mL] | IC50 (L 1210 tumor cells) [µg/mL] | IC50, Strain test, continuous (L 1210 leukemia cells [1]) [µg/mL] | IC50, Strain test, 1 hour (L 1210 leukemia cells [2]) [µg/mL] | IC50, Proliferation test (L 1210 tumor cells; L 1210, 72 hours at 37° C.) [µg/mL]
1 | 3B,4B,8-tri-O-acetylurdamycin A [3B,4B,8-Tri-O-acetylu. A] |  |  |  | 0.4 | 1.1 | < 1
2 | CC(=O)OC1CC(OC2CCC(OC3CC(c4ccc5c(c4O)C(=O)C4=C(C5=O)C5(OC6CCC(O)C(C)O6)C(=O)CC(C)(O)CC5(O)C=C4)OC(C)C3O)OC2C)OC(C)C1O (stereo not drawn) [3B-O-Acetylurdamycin A, 3B-O-acetylurdamycin A] | 0.28 (≈ 0.316 µM) | 2.2 (≈ 2.48 µM) | < 1 |  |  | 
3 | CC(=O)OC1CC(OC2CCC(OC3CC(c4ccc5c(c4O)C(=O)C4=C(C5=O)C5(OC6CCC(O)C(C)O6)C(=O)CC(C)(O)CC5(O)C=C4)OC(C)C3O)OC2C)OC(C)C1OC(C)=O (stereo not drawn) [3B,4B-Di-O-acetylu. A, 3B,4B-di-O-acetylurdamycin A] | 0.11 (≈ 0.118 µM) | 0.35 (≈ 0.377 µM) | < 1 |  |  | 
4 | CCCCCCCC(=O)OC1CC(OC2CCC(OC3CC(c4ccc5c(c4O)C(=O)C4=C(C5=O)C5(OC6CCC(O)C(C)O6)C(=O)CC(C)(O)CC5(O)C=C4)OC(C)C3O)OC2C)OC(C)C1O (stereo not drawn) [3B-O-Octanoylurdamycin A] |  | 0.26 (≈ 0.268 µM) | < 1 |  |  | 

Continued, values first:

Row | IC50 (L 1210 leukemia cells [1]) [µg/mL] | IC50 (L 1210 leukemia cells [2]) [µg/mL] | IC50 (L 1210 tumor cells) [µg/mL] | IC50, Strain test, continuous (L 1210 leukemia cells [1]) [µg/mL] | IC50, Strain test, 1 hour (L 1210 leukemia cells [2]) [µg/mL] | IC50, Proliferation test (L 1210 tumor cells; L 1210, 72 hours at 37° C.) [µg/mL] | Molecule
5 | 0.042 (≈ 0.0398 µM) | 0.12 (≈ 0.114 µM) | < 1 |  |  |  | CC(=O)Oc1c(C2CC(OC3CCC(OC4CC(OC(C)=O)C(OC(C)=O)C(C)O4)C(C)O3)C(OC(C)=O)C(C)O2)ccc2c1C(=O)C1=C(C2=O)C2(OC3CCC(OC(C)=O)C(C)O3)C(=O)CC(C)(O)CC2(O)C=C1 (stereo not drawn) [Penta-O-acetylu. A, 5',3B,4B,4C,8-penta-O-acetylurdamycin A, reference compound]
6 | 0.078 (≈ 0.077 µM) | 0.25 (≈ 0.247 µM) | < 1 |  |  |  | CC(=O)OC1CCC(OC23C(=O)CC(C)(O)CC2(O)C=CC2=C3C(=O)c3ccc(C4CC(OC5CCC(OC6CC(OC(C)=O)C(OC(C)=O)C(C)O6)C(C)O5)C(OC(C)=O)C(C)O4)c(O)c3C2=O)OC1C (stereo not drawn) [5',3B,4B,4C-Tetra-O-acetylu. A, 5',3B,4B,4C-tetra-O-acetylurdamycin A]
7 |  | 0.09 (≈ 0.0927 µM) | < 1 |  |  |  | CCCCCCCC(=O)OC1C(O)CC(OC2CCC(OC3CC(c4ccc5c(c4O)C(=O)C4=C(C5=O)C5(OC6CCC(O)C(C)O6)C(=O)CC(C)(O)CC5(O)C=C4)OC(C)C3O)OC2C)OC1C (stereo not drawn) [4B-O-Octanoylurdamycin A]
8 | 0.13 (≈ 0.14 µM) | 0.85 (≈ 0.915 µM) | < 1 |  |  |  | CC(=O)OC1CCC(OC23C(=O)CC(C)(O)CC2(O)C=CC2=C3C(=O)c3ccc(C4CC(OC5CCC(OC6CC(O)C(OC(C)=O)C(C)O6)C(C)O5)C(O)C(C)O4)c(O)c3C2=O)OC1C (stereo not drawn) [4B,4C-Di-O-acetylu. A, 4B,4C-di-O-acetylurdamycin A]
9 | 0.075 (≈ 0.074 µM) |  | < 1 |  |  |  | CC(=O)Oc1c(C2CC(OC3CCC(OC4CC(OC(C)=O)C(OC(C)=O)C(C)O4)C(C)O3)C(OC(C)=O)C(C)O2)ccc2c1C(=O)C1=C(C2=O)C2(OC3CCC(O)C(C)O3)C(=O)CC(C)(O)CC2(O)C=C1 (stereo not drawn) [5',3B,4B,8-Tetra-O-acetylu. A, 5',3B,4B,8-tetra-O-acetylurdamycin A]
